Results reported in US8372582B2, “Methods of modulating metabolic memory” (Joslin Diabetes Center, Inc., priority 2006, dated 2013).
Entries after “also recorded” stand apart in the source; their conditions may differ.

Experiments:
[1] = tested on: bovine retinal pericytes; assay: HG-induced apoptosis (DNA fragmentation) in cultured retinal pericytes; format: cell-based; details: for reversal of apoptosis / effects of HG once established: agent added during LG conditions after HG exposure; for effect on HG-induced apoptosis: pericytes in high glucose (20 mM), agent present with HG
Experimental: Cell apoptosis will be evaluated by measurement of DNA fragmentation using cell death detection kit (ROCHE diagnostics). Approximately 15000 cells are seeded in 96-well plates in DMEM with 20% FBS for 18 hours. BRP are starved for 24 hours and then stimulated with either 5.5 or 20 mM of d-glucose for an addition 72 hours. DNA fragmentation is measured in accordance to manufacture's protocol. Increases in caspase 3+9 cleared will also be measured using immunoblot analysis. Measurement of NF-κB activity in cultured cells. Activity of NF-κB will be assessed by a microwell colorimetric assay using the TransAM NFκB transcription factor assay kit (Active Motif, Carlsbad, Calif.) following manufacturer's instruction (Renard et al., Nucleic Acids Res 29, E21 (2001)).
Various potential mechanisms for the metabolic memory process in retinal pericytes were explored in vitro. Cells were culture in high glucose (HG, 20 mM glucose) for about 72 hours, and then for another 24 hours in low glucose (LG, 5.6 mM glucose). This mimics a period of hyperglycemia followed by normoglycemia, a common pattern in diabetics, who often have a period of poorly controlled glycemia before finding a regime that provides better control, thus providing a cultured cell model of metabolic memory.
(§1) The role of p38 MAPK was studied further using SB203580, a specific inhibitor for p38 MAPK a and […] and adenoviral vector of dominant negative p38 MAPKα and β isoforms (Wang et al., J Biol Chem 273, 2161-8 (1998)), either at the same time as starting HG condition or after 3 days of HG when cells are returning to LG condition. In addition, the effects of the antioxidant N-acetylcysteine (NAC) were also evaluated. Activation of p38 MAPK β and δ was evaluated by immunoblotting with anti-phospho p38 MAPK α and δ antibodies.

[2] = tested on: p38 MAPK; assay: HG-induced p38 MAPK activation in pericytes (immunoblot); format: cell-based, bovine; details: high glucose
Text: In addition to PKC activation, the effect of HG on p38 MAPK activation was also characterized, since PKC δ activation induced by HG can activate p38 MAPK in aortic smooth muscle and renal mesangial cells. […] HG was able to increase the phosphorylation of p38 MAPK by 2-fold in pericytes after three days of exposure (FIG. 4) in parallel with PKC δ activation and increases in apoptosis; no effects on JNK were observed.
as §1

[3] = tested on: SHP-1; assay: HG-induced SHP-1 expression in pericytes (Western blot); format: cell-based; details: high glucose
Experimental: (§2) Protein tyrosine phosphatases (PTPs) play a key role in the regulation of receptor tyrosine kinases such as the PDGF-β receptor. Thus, experiments were performed to determine the pathway by which glycemic memory prevented tyrosine phosphorylation of the PDGF-Beta receptor. Cultured pericytes were exposed to either low glucose conditions (˜5.5 mM glucose, LG), high glucose conditions (˜20 mM glucose, HG), or high glucose followed by low glucose (˜20 mM, ±5.5 mM glucose, HG+LG) for 72 hours per exposure. Pericytes were lysed, and lysates were run on an SDS/PAGE gel, then transferred to nitrocellulose for immunoblotting, according to already published procedures. Commercially available antibodies for SHP-1 and another protein tyrosine phosphatase, PTP-1B were used to probe the blot, according to manufacturer's instructions.

[4] = tested on: PDGF-Beta receptor; assay: PDGF-BB-induced tyrosine phosphorylation of PDGF-β receptor in HG-treated pericytes (Western blot); format: cell-based; details: high glucose
Experimental: as §2
Cultured pericytes were treated with high glucose (˜20 mM glucose) and subsequently prepared for Western blot analyses as described in Example 2. An antibody directed against phosphorylated PDGF-Beta receptor was used to assess the effects of the HG treatment on receptor phosphorylation levels.

CC(=O)N[C@@H](CS)C(=O)O [NAC, N-acetylcysteine]
reversal of apoptosis / effects of HG once established [1]: not totally effective
effect on HG-induced apoptosis [1]: partly able to prevent

CN(C)C[C@@H]1CCn2cc(c3ccccc32)C2=C(C(=O)NC2=O)c2cn(c3ccccc23)CCO1 [RBX]
effect on HG-induced apoptosis [1]: ineffective
prevention of HG induced p38 MAPK activation [2]: ineffective

C[S+]([O-])c1ccc(-c2nc(-c3ccncc3)c(-c3ccc(F)cc3)[nH]2)cc1 (stereo not shown) [SB203580]
reversal of apoptosis / effects of HG once established [1]: not totally effective
effect on HG-induced apoptosis [1]: partly able to prevent; also recorded: prevented apoptosis
effect on HG-induced expression of SHP-1 [3]: prevented
effect on HG-induced abrogation of PDGF-BB actions [4]: abrogated PDGF-BB actions; also recorded: prevented
effect on HG-prevented tyrosine phosphorylation of PDGFR-β induced by PDGF ([4]; FIG. 16): reversed

dominant negative form of SHP-1: dominant negative form of SHP-1 (Dubois et al., Nat. Med. 2006); C453S ablates phosphatase activity
effect on HG-induced apoptosis [1]: reduces HG-induced apoptosis, even in the presence of PDGF
